# Reference: US10213433B2 (AbbVie Inc., priority 2010, dated 2019)
# Target: Bcl-2 protein (Homo sapiens (Human), UniProt P10415)
# Assay: Bcl-2 binding TR-FRET (Time-Resolved Fluorescence-Resonance-Energy-Transfer) assay
# Details: inhibition constant for binding to Bcl-2 protein
# Text: The smaller the Ki value, the greater is the binding affinity.
# Sequence of Bcl-2 protein (P10415 whole entry): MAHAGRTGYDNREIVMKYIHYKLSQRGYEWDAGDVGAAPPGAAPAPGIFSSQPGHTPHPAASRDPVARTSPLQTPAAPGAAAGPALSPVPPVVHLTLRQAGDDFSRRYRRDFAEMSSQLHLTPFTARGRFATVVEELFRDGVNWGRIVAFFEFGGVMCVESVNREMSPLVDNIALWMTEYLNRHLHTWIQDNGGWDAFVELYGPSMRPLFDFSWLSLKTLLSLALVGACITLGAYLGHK
row,Structure (SMILES),Ki
1,"CC1(C)CCC(CN2CCN(c3ccc(C(=O)NS(=O)(=O)c4ccc(NC5CN(C6CCOCC6)C5)c([N+](=O)[O-])c4)c(Oc4cnc5[nH]ccc5c4)c3)CC2)=C(c2ccc(Cl)cc2)C1 [Compound 116, 4-(4-{[2-(4-chlorophenyl)-4,4-dimethylcyclohex-1-en-1-yl]methyl}piperazin-1-yl)-N-({3-nitro-4-[(1-tetrahydro-2H-pyran-4-ylazetidin-3-yl)amino]phenyl}sulfonyl)-2-(1H-pyrrolo[2,3-b]pyridin-5-yloxy)benzamide]",< 0.01 nM
2,"CC1(C)CCC(CN2CCN(c3ccc(C(=O)NS(=O)(=O)c4ccc(NC5CN(C6CCOC6)C5)c([N+](=O)[O-])c4)c(Oc4cnc5[nH]ccc5c4)c3)CC2)=C(c2ccc(Cl)cc2)C1 (stereo not shown) [Compound 117, 4-(4-{[2-(4-chlorophenyl)-4,4-dimethylcyclohex-1-en-1-yl]methyl}piperazin-1-yl)-N-({3-nitro-4-[(1-tetrahydrofuran-3-ylazetidin-3-yl)amino]phenyl}sulfonyl)-2-(1H-pyrrolo[2,3-b]pyridin-5-yloxy)benzamide]",< 0.01 nM
3,"CC1(C)CCC(CN2CCN(c3ccc(C(=O)NS(=O)(=O)c4ccc(NC[C@H]5CCN(C6CCOCC6)C5)c([N+](=O)[O-])c4)c(Oc4cnc5[nH]ccc5c4)c3)CC2)=C(c2ccc(Cl)cc2)C1 [Compound 118, 4-(4-{[2-(4-chlorophenyl)-4,4-dimethylcyclohex-1-en-1-yl]methyl}piperazin-1-yl)-N-{[3-nitro-4-({[(3R)-1-tetrahydro-2H-pyran-4-ylpyrrolidin-3-yl]methyl}amino)phenyl]sulfonyl}-2-(1H-pyrrolo[2,3-b]pyridin-5-yloxy)benzamide]",< 0.01 nM
4,"CC1(C)CCC(c2ccc(Cl)cc2)=C(CN2CCN(c3ccc(C(=O)NS(=O)(=O)c4ccc(OCC5(F)CCOCC5)c([N+](=O)[O-])c4)c(Oc4cnc5[nH]ccc5c4)c3)CC2)C1 [Compound 119, 4-(4-{[2-(4-chlorophenyl)-5,5-dimethylcyclohex-1-en-1-yl]methyl}piperazin-1-yl)-N-({4-[(4-fluorotetrahydro-2H-pyran-4-yl)methoxy]-3-nitrophenyl}sulfonyl)-2-(1H-pyrrolo[2,3-b]pyridin-5-yloxy)benzamide]",< 0.01 nM
5,CC1(C)CCC(CN2CCN(c3ccc(C(=O)NS(=O)(=O)c4ccc(NC[C@H]5CC[C@H](O)CC5)c([N+](=O)[O-])c4)c(Oc4cnc5[nH]ccc5c4)c3)CC2)=C(c2ccc(Cl)cc2)C1 [Compound 120],< 0.01 nM
6,"CC1(C)CCC(CN2CCN(c3ccc(C(=O)NS(=O)(=O)c4ccc(N[C@H]5CC[C@@H](NC6CC6)CC5)c([N+](=O)[O-])c4)c(Oc4cnc5[nH]ccc5c4)c3)CC2)=C(c2ccc(Cl)cc2)C1 [Compound 122, cis-4-(4-{[2-(4-chlorophenyl)-4,4-dimethylcyclohex-1-en-1-yl]methyl}piperazin-1-yl)-N-[(4-{[4-(cyclopropylamino)cyclohexyll]amino}-3-nitrophenyl)sulfonyll]-2-(1H-pyrrolo[2,3-b]pyridin-5-yloxy)benzamide]",< 0.01 nM
7,CC1(C)CCC(CN2CCN(c3ccc(C(=O)NS(=O)(=O)c4cnc(O[C@H]5CC[C@H](N6CCOCC6)CC5)c(Br)c4)c(Oc4cnc5[nH]ccc5c4)c3)CC2)=C(c2ccc(Cl)cc2)C1 [Compound 124],< 0.01 nM
8,"CC1(C)CCC(CN2CCN(c3ccc(C(=O)NS(=O)(=O)c4ccc(OCC5(F)CCN(C(=O)OC(C)(C)C)CC5)c([N+](=O)[O-])c4)c(Oc4cnc5[nH]ccc5c4)c3)CC2)=C(c2ccc(Cl)cc2)C1 [Compound 126, tert-butyl 4-{[4-({[4-(4-{[2-(4-chlorophenyl)-4,4-dimethylcyclohex-1-en-1-yl]methyl}piperazin-1-yl)-2-(1H-pyrrolo[2,3-b]pyridin-5-yloxy)benzoyl]amino}sulfonyl)-2-nitrophenoxy]methyl}-4-fluoropiperidine-1-carboxylate]",< 0.01 nM
9,"CC1(C)CCC(CN2CCN(c3ccc(C(=O)NS(=O)(=O)c4ccc(OCC5(F)CCNCC5)c([N+](=O)[O-])c4)c(Oc4cnc5[nH]ccc5c4)c3)CC2)=C(c2ccc(Cl)cc2)C1 [Compound 127, 4-(4-{[2-(4-chlorophenyl)-4,4-dimethylcyclohex-1-en-1-yl]methyl}piperazin-1-yl)-N-({4-[(4-fluoropiperidin-4-yl)methoxy]-3-nitrophenyl}sulfonyl)-2-(1H-pyrrolo[2,3-b]pyridin-5-yloxy)benzamide]",< 0.01 nM
10,"CC1(C)CCC(CN2CCN(c3ccc(C(=O)NS(=O)(=O)c4ccc(N[C@@H]5CCN(C6CCOCC6)C5)c([N+](=O)[O-])c4)c(Oc4cnc5[nH]ccc5c4)c3)CC2)=C(c2ccc(Cl)cc2)C1 [Compound 130, 4-(4-{[2-(4-chlorophenyl)-4,4-dimethylcyclohex-1-en-1-yl]methyl}piperazin-1-yl)-N-[(3-nitro-4-{[(3R)-1-tetrahydro-2H-pyran-4-ylpyrrolidin-3-yl]amino}phenyl)sulfonyl]-2-(1H-pyrrolo[2,3-b]pyridin-5-yloxy)benzamide]",< 0.01 nM
11,"CC1(C)CCC(CN2CCN(c3ccc(C(=O)NS(=O)(=O)c4ccc(N[C@@H]5CCN(C6CCOC(C)(C)C6)C5)c([N+](=O)[O-])c4)c(Oc4cnc5[nH]ccc5c4)c3)CC2)=C(c2ccc(Cl)cc2)C1 (stereo partly drawn) [Compound 131, 4-(4-{[2-(4-chlorophenyl)-4,4-dimethylcyclohex-1-en-1-yl]methyl}piperazin-1-yl)-N-[(4-{[(3R)-1-(2,2-dimethyltetrahydro-2H-pyran-4-yl)pyrrolidin-3-yl]amino}-3-nitrophenyl)sulfonyl]-2-(1H-pyrrolo[2,3-b]pyridin-5-yloxy)benzamide]",< 0.01 nM
12,"CC1(C)CCC(CN2CCN(c3ccc(C(=O)NS(=O)(=O)c4ccc(N[C@H]5CCN(C6CCOCC6)C5)c([N+](=O)[O-])c4)c(Oc4cnc5[nH]ccc5c4)c3)CC2)=C(c2ccc(Cl)cc2)C1 [Compound 132, 4-(4-{[2-(4-chlorophenyl)-4,4-dimethylcyclohex-1-en-1-yl]methyl}piperazin-1-yl)-N-[(3-nitro-4-{[(3S)-1-tetrahydro-2H-pyran-4-ylpyrrolidin-3-yl]amino}phenyl)sulfonyl]-2-(1H-pyrrolo[2,3-b]pyridin-5-yloxy)benzamide]",< 0.01 nM
13,"CC1(C)CCC(CN2CCN(c3ccc(C(=O)NS(=O)(=O)c4ccc(N[C@H]5CCN(C6CCOC(C)(C)C6)C5)c([N+](=O)[O-])c4)c(Oc4cnc5[nH]ccc5c4)c3)CC2)=C(c2ccc(Cl)cc2)C1 (stereo partly drawn) [Compound 133, 4-(4-{[2-(4-chlorophenyl)-4,4-dimethylcyclohex-1-en-1-yl]methyl}piperazin-1-yl)-N-[(4-{[(3S)-1-(2,2-dimethyltetrahydro-2H-pyran-4-yl)pyrrolidin-3-yl]amino}-3-nitrophenyl)sulfonyl]-2-(1H-pyrrolo[2,3-b]pyridin-5-yloxy)benzamide]",< 0.01 nM
14,"CN1CCOC(CNc2ccc(S(=O)(=O)NC(=O)c3ccc(N4CCN(CC5=C(c6ccc(Cl)cc6)CC(C)(C)CC5)CC4)cc3Oc3cnc4[nH]ccc4c3)cc2[N+](=O)[O-])C1 (stereo not shown) [Compound 134, 4-(4-{[2-(4-chlorophenyl)-4,4-dimethylcyclohex-1-en-1-yl]methyl}piperazin-1-yl)-N-[(4-{[(4-methylmorpholin-2-yl)methyl]amino}-3-nitrophenyl)sulfonyl]-2-(1H-pyrrolo[2,3-b]pyridin-5-yloxy)benzamide]",< 0.01 nM
15,"COCCN1CCOC(CNc2ccc(S(=O)(=O)NC(=O)c3ccc(N4CCN(CC5=C(c6ccc(Cl)cc6)CC(C)(C)CC5)CC4)cc3Oc3cnc4[nH]ccc4c3)cc2[N+](=O)[O-])C1 (stereo not shown) [Compound 135, 4-(4-{[2-(4-chlorophenyl)-4,4-dimethylcyclohex-1-en-1-yl]methyl}piperazin-1-yl)-N-{[4-({[4-(2-methoxyethyl)morpholin-2-yl]methyl}amino)-3-nitrophenyl]sulfonyl}-2-(1H-pyrrolo[2,3-b]pyridin-5-yloxy)benzamide]",< 0.01 nM
16,"CC(=O)N1CCOC(CNc2ccc(S(=O)(=O)NC(=O)c3ccc(N4CCN(CC5=C(c6ccc(Cl)cc6)CC(C)(C)CC5)CC4)cc3Oc3cnc4[nH]ccc4c3)cc2[N+](=O)[O-])C1 (stereo not shown) [Compound 136, N-[(4-{[(4-acetylmorpholin-2-yl)methyl]amino}-3-nitrophenyl)sulfonyl]-4-(4-{[2-(4-chlorophenyl)-4,4-dimethylcyclohex-1-en-1-yl]methyl}piperazin-1-yl)-2-(1H-pyrrolo[2,3-b]pyridin-5-yloxy)benzamide]",< 0.01 nM
17,"CC1(C)CCC(CN2CCN(c3ccc(C(=O)NS(=O)(=O)c4ccc(NCC5(F)CCOCC5)c([N+](=O)[O-])c4)c(Oc4cnc5[nH]ccc5c4)c3)CC2)=C(c2ccc(Cl)cc2)C1 [Compound 138, 4-(4-{[2-(4-chlorophenyl)-4,4-dimethylcyclohex-1-en-1-yl]methyl}piperazin-1-yl)-N-[(4-{[(4-fluorotetrahydro-2H-pyran-4-yl)methyl]amino}-3-nitrophenyl)sulfonyl]-2-(1H-pyrrolo[2,3-b]pyridin-5-yloxy)benzamide]",< 0.01 nM
18,"CC1(C)CCC(CN2CCN(c3ccc(C(=O)NS(=O)(=O)c4ccc(NC5CCN(C6COC6)CC5)c([N+](=O)[O-])c4)c(Oc4cnc5[nH]ccc5c4)c3)CC2)=C(c2ccc(Cl)cc2)C1 [Compound 139, 4-(4-{[2-(4-chlorophenyl)-4,4-dimethylcyclohex-1-en-1-yl]methyl}piperazin-1-yl)-N-({3-nitro-4-[(1-oxetan-3-ylpiperidin-4-yl)amino]phenyl}sulfonyl)-2-(1H-pyrrolo[2,3-b]pyridin-5-yloxy)benzamide]",< 0.01 nM
19,"CC1(C)CCC(CN2CCN(c3ccc(C(=O)NS(=O)(=O)c4ccc(NC5CCN(C6CCC6)CC5)c([N+](=O)[O-])c4)c(Oc4cnc5[nH]ccc5c4)c3)CC2)=C(c2ccc(Cl)cc2)C1 [Compound 140, 4-(4-{[2-(4-chlorophenyl)-4,4-dimethylcyclohex-1-en-1-yl]methyl}piperazin-1-yl)-N-({4-[(1-cyclobutylpiperidin-4-yl)amino]-3-nitrophenyl}sulfonyl)-2-(1H-pyrrolo[2,3-b]pyridin-5-yloxy)benzamide]",< 0.01 nM
